# How the values were obtained:
# [1] = test system: Aspergillus fumigatus; test: Antifungal activity against Aspergillus fumigatus; assay type: functional
# [2] = test system: Escherichia coli; test: Antibacterial activity against Escherichia coli; assay type: functional
# [3] = test system: Pseudomonas aeruginosa; test: Antibacterial activity against Pseudomonas aeruginosa; assay type: functional
# [4] = test system: Candida albicans; test: Antifungal activity against Candida albicans; assay type: functional
# [5] = test system: Streptococcus pyogenes; test: Antibacterial activity against Streptococcus pyogenes; assay type: functional
# [6] = test system: Pseudomonas aeruginosa; test: Antibacterial activity against Pseudomonas aeruginosa assessed as diameter of inhibition zone at 100 ppm; assay type: functional; conditions: read-out: DIZ
# [7] = test system: Salmonella paratyphi; test: Antibacterial activity against Salmonella paratyphi assessed as diameter of inhibition zone at 100 ppm; assay type: functional, Salmonella enterica subsp. enterica serovar Paratyphi A; conditions: Salmonella enterica, read-out: DIZ
# [8] = test system: Micrococcus luteus; test: Antibacterial activity against Micrococcus luteus assessed as diameter of inhibition zone at 100 ppm; assay type: functional; conditions: read-out: DIZ
# [9] = test system: Salmonella typhi; test: Antibacterial activity against Salmonella typhi assessed as diameter of inhibition zone at 100 ppm; assay type: functional, Salmonella enterica subsp. enterica serovar Typhi; conditions: Salmonella enterica, read-out: DIZ
# [10] = test system: Trichoderma viride; test: Antifungal activity against Trichoderma viride assessed as diameter of inhibition zone at 100 ppm; assay type: functional; conditions: read-out: DIZ
# [11] = test system: Bacillus subtilis; test: Antibacterial activity against Bacillus subtilis assessed as diameter of inhibition zone at 100 ppm; assay type: functional; conditions: read-out: DIZ
# [12] = test system: Streptococcus mutans; test: Antibacterial activity against Streptococcus mutans assessed as diameter of inhibition zone at 100 ppm; assay type: functional; conditions: read-out: DIZ
# [13] = test system: Candida albicans; test: Antifungal activity against Candida albicans assessed as diameter of inhibition zone at 100 ppm; assay type: functional; conditions: read-out: DIZ
# [14] = test system: Rattus norvegicus; test: Antiinflammatory activity against rat assessed as inhibition of carrageenan-induced paw edema relative to control; assay type: functional; design: concentration or dose not given beside the values
# [15] = species on record: Ovis aries; test: Selectivity index, ratio of IC50 for ovine COX-1 to IC50 for ovine COX-2
# [16] = test system: Staphylococcus aureus; test: Antibacterial activity against Staphylococcus aureus; assay type: functional
# [17] = test system: Aspergillus niger; test: Antifungal activity against Aspergillus niger; assay type: functional
# [18] = test system: Bacillus subtilis; test: Antibacterial activity against Bacillus subtilis; assay type: functional
# [19] = Antioxidant activity assessed as DPPH radical scavenging activity; assay type: functional
# [20] = test system: MCF7; test: Cytotoxicity against human MCF7 cells; assay type: functional, cell-based
# [21] = test system: Ehrlich; test: Cytotoxicity against mouse Ehrlich ascites cells assessed as dead cells at 25 ug/ml; assay type: functional; conditions: dose 25 µg/ml
# [22] = test system: Ehrlich; test: Cytotoxicity against mouse Ehrlich ascites cells assessed as dead cells at 100 ug/ml; assay type: functional; conditions: dose 100 µg/ml
# [23] = test system: Ehrlich; test: Cytotoxicity against mouse Ehrlich ascites cells assessed as dead cells at 500 ug/ml; assay type: functional; conditions: dose 500 µg/ml
# [24] = Antioxidant activity assessed as ABTS radical scavenging activity; assay type: functional
# [25] = test system: Rattus norvegicus; test: Antiinflammatory activity against rat assessed as inhibition of carrageenan-induced paw edema; assay type: functional
# [26] = target: T1, Prostaglandin G/H synthase 1 (Ovis aries, UniProt P05979); test: Inhibition of ovine COX-1
# T1 sequence (P05979 whole entry): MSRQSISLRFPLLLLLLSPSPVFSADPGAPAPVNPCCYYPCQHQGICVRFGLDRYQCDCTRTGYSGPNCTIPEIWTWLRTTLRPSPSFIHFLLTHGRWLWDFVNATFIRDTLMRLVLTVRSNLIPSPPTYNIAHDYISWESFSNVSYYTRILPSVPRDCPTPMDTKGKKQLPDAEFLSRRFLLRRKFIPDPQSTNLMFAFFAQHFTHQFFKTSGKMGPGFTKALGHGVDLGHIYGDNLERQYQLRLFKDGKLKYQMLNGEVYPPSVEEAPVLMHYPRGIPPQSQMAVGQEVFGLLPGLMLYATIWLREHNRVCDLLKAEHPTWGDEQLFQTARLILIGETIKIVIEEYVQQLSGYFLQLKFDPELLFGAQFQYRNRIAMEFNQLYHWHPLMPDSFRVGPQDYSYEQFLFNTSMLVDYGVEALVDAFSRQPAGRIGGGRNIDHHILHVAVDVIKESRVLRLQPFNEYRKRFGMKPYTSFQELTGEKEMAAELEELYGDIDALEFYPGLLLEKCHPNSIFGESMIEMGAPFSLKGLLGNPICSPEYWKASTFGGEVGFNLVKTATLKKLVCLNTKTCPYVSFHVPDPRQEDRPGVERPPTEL
smiles,measurement,setting,value
CC(=O)OC1CC[C@@]2(C)C(C1)/C(=C1/C(=O)NN=C1N)C[C@H]1[C@@H]3CC[C@H]([C@H](C)CCCC(C)C)[C@@]3(C)CC[C@@H]12 (stereo not given in full),MIC,[1],50 µg/mL
same,MIC,[2],50 µg/mL
same,MIC,[3],50 µg/mL
same,MIC,[4],25 µg/mL
same,MIC,[5],50 µg/mL
Cc1[nH]n(-c2ccccc2)c(=O)c1C(c1ccc([N+](=O)[O-])cc1[N+](=O)[O-])c1c(O)ccc2ccccc12 (stereo not given),zone of inhibition at 100 µg/mL,[6],13.5 mm
same,zone of inhibition at 100 µg/mL,[7],20 mm
same,zone of inhibition at 100 µg/mL,[8],21.5 mm
same,zone of inhibition at 100 µg/mL,[9],20 mm
same,zone of inhibition at 100 µg/mL,[10],21.5 mm
same,zone of inhibition at 100 µg/mL,[11],22.5 mm
same,zone of inhibition at 100 µg/mL,[12],14.5 mm
same,zone of inhibition at 100 µg/mL,[13],28.5 mm
CCCCNc1nc2ccccc2n1C1=NN=C(O)C1,Activity,[14],61%
same,Ratio IC50,[15],4.84
O=C1/C(=C\c2coc3ccccc3c2=O)C(C(F)(F)F)=NN1c1c(F)c(F)cc(F)c1F,MIC,[16],62.5 µg/mL
same,MIC,[17],> 1000 µg/mL
same,MIC,[18],62.5 µg/mL
same,MIC,[2],500 µg/mL
same,MIC,[3],500 µg/mL
same,MIC,[4],250 µg/mL
same,MIC,[5],200 µg/mL
Cc1c(/N=C/c2ccc(O)cc2O)c(=O)n(-c2ccccc2)n1C,IC50,[19],20.1 µM
CCCOC(=O)c1cc(O)c(O)c(O)c1 [PROPYL GALLATE],IC50,[19],30.3 µM
Cc1c(-n2cc(C#N)c(=O)n(-c3ccc(S(=O)(=O)c4ccc(-n5c(=O)c(C#N)cn(-c6c(C)n(C)n(-c7ccccc7)c6=O)c5=S)cc4)cc3)c2=S)c(=O)n(-c2ccccc2)n1C,IC50,[20],37.2 µM
CCOC(=O)c1c(N/N=C2/C(=O)NN=C2N)sc2c1CCCC2,Activity,[21],60%
same,Activity,[22],98.1%
same,Activity,[23],79%
CCCC1=NN(c2c(F)c(F)cc(F)c2F)C(=O)/C1=C\c1cn(-c2ccccc2)nc1-c1cccs1,MIC,[16],125 µg/mL
same,MIC,[17],> 1000 µg/mL
same,MIC,[18],125 µg/mL
same,MIC,[2],200 µg/mL
same,MIC,[3],250 µg/mL
same,MIC,[4],> 1000 µg/mL
same,MIC,[5],62.5 µg/mL
Cc1c(-n2cc(C#N)c(=O)n(-c3ccccc3)/c2=N\c2ccccc2)c(=O)n(-c2ccccc2)n1C,IC50,[20],45 µM
COc1ccc(N/N=C2\C(=O)N(CC(=O)n3[nH]c(N)cc3=O)N=C2C(F)(F)F)cc1,MIC,[16],8.02 µg/mL
same,MIC,[17],5.3 µg/mL
same,MIC,[2],15.3 µg/mL
same,MIC,[3],9.58 µg/mL
same,MIC,[4],9.22 µg/mL
CC1=NN(c2nc(-c3ccccc3)cs2)C(=O)C1C(=S)Nc1ccccc1 (stereo not given),Activity,[24],88.6%
NS(=O)(=O)c1ccc(N/N=C2/C=NN(c3ccc(C(=O)O)cc3)C2=O)cc1,Activity,[14],72.72%
same,ED50,[25],79 µmol/kg
CC1=NNC(=O)/C1=N/Nc1sc2c(c1C#N)CCCC2,Activity,[21],29.8%
same,Activity,[22],84%
same,Activity,[23],53.3%
C/C(=N\c1c(C)n(C)n(-c2ccccc2)c1=O)c1cc(O)ccc1O,IC50,[19],15.2 µM
O=C1/C(=C\c2coc3ccc(Cl)cc3c2=O)C(C(F)(F)F)=NN1c1c(F)c(F)cc(F)c1F,MIC,[16],250 µg/mL
same,MIC,[17],500 µg/mL
same,MIC,[18],250 µg/mL
same,MIC,[2],125 µg/mL
same,MIC,[3],62.5 µg/mL
same,MIC,[4],1000 µg/mL
same,MIC,[5],200 µg/mL
Cc1c(-n2cc(C#N)c(=O)n(-c3ccc(Br)cc3)c2=S)c(=O)n(-c2ccccc2)n1C,IC50,[20],43.4 µM
Cc1c(-n2cc3c(N)nnc-3n(-c3ccccc3)/c2=N\N)c(=O)n(-c2ccccc2)n1C,IC50,[20],45 µM
CC(C)CCC[C@@H](C)[C@H]1CC[C@H]2[C@@H]3C/C(=C4\C(=O)NN=C4N)C4CC(Cl)CC[C@]4(C)[C@H]3CC[C@]12C (stereo not given in full),MIC,[1],50 µg/mL
same,MIC,[2],100 µg/mL
same,MIC,[3],50 µg/mL
same,MIC,[4],50 µg/mL
same,MIC,[5],50 µg/mL
CC1=NN(c2ccccc2)C(=O)C1c1cc(-c2ccc(N(C)C)cc2)nc(N)n1 (stereo not given),Activity,[14],62%
CC1=NN(c2ccc([N+](=O)[O-])cc2[N+](=O)[O-])C(=O)C1c1cc(-c2ccc(N(C)C)cc2)nc(N)n1 (stereo not given),Activity,[14],62.05%
Cc1[nH]n(-c2ccccc2)c(=O)c1CNc1ccc(S(N)(=O)=O)cc1,Activity,[14],92%
same,IC50,[26],> 100 µM
same,ED50,[25],109 mg/kg
same,Ratio IC50,[15],> 100
NC1=NNC(=O)C1C(CS(=O)(=O)Cc1ccccc1)c1ccccc1 (stereo not given),MIC,[16],25 µg/mL
same,MIC,[17],50 µg/mL
same,MIC,[18],25 µg/mL
CCOC(=O)c1c(N/N=C2/C(=O)NN=C2C)sc2c1CCCC2,Activity,[21],43%
same,Activity,[22],79.4%
same,Activity,[23],71%
N#Cc1c(N/N=C2/C(=O)NN=C2N)sc2c1CCCC2,Activity,[21],94%
same,Activity,[22],100%
same,Activity,[23],98.6%
Cc1[nH]n(-c2ccccc2)c(=O)c1CNC(=S)Nc1ccccc1,Activity,[14],91%
same,ED50,[25],102 mg/kg
same,Ratio IC50,[15],400
